From patent publication US12371428B2 (Exelixis, Inc., priority 2019, dated 2025)

Columns and labels:
[1] = target: KDR (phospho-KDR, VEGF165-stimulated HUVEC cells) (Homo sapiens (Human), UniProt P35968); test: KDR autophosphorylation ELISA in HUVEC cells (Example G); type: cell-based; conditions: cellular activity; KDR autophosphorylation ELISA in HUVEC cells
In short: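 HUVEC cells, serum-starved 24 h, were treated 1 h with an 8-point compound dilution (0.3% DMSO) and then stimulated with 100 ng/mL VEGF165 for 5 min. Phospho-KDR in lysates was quantified by sandwich ELISA against a phospho-KDR standard. IC50 from a 4-parameter logistic fit, normalised between stimulated DMSO and unstimulated controls.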

[2] = target: Human MET (residues 956-1390) (Homo sapiens (Human), UniProt P08581); test: Human Met kinase assay, HTRF KinEase (Example D-2); type: biochemical; conditions: protocol of Example D-2 (other compounds); read-out: c-Met IC50
In short: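 HTRF KinEase assay on MET residues 956-1390 (0.1 ng/well) in buffer with 5 mM MgCl2, 1 mM DTT and 1 mM MnCl2, with biotinylated peptide substrate, ATP at Km, 10 compound concentrations and 3% DMSO final, run 40 min at room temperature. The […] signal was normalized to DMSO and to 1 μM reference compound, and IC50 came from a 4-parameter logistic fit.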

[3] = target: Met (phospho-Met, HGF-stimulated PC-3 prostate cancer cells) (Homo sapiens (Human), UniProt P08581); test: Met autophosphorylation ELISA in PC-3 cells (Example F); type: cell-based; conditions: cellular activity; Met autophosphorylation ELISA in PC-3 cells; read-out: c-Met IC50
In short: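 PC-3 cells, serum-starved 3 h, were treated with compounds (8-point dose curve, 0.3% DMSO final) for 1 h, then stimulated with 100 ng/mL recombinant human HGF for 10 min. Lysate phospho-Met (panTyr) was quantified by sandwich ELISA; IC50 from 4-parameter logistic fit.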

Sequence of Met (phospho-Met, HGF-stimulated PC-3 prostate cancer cells) (P08581 25-1390): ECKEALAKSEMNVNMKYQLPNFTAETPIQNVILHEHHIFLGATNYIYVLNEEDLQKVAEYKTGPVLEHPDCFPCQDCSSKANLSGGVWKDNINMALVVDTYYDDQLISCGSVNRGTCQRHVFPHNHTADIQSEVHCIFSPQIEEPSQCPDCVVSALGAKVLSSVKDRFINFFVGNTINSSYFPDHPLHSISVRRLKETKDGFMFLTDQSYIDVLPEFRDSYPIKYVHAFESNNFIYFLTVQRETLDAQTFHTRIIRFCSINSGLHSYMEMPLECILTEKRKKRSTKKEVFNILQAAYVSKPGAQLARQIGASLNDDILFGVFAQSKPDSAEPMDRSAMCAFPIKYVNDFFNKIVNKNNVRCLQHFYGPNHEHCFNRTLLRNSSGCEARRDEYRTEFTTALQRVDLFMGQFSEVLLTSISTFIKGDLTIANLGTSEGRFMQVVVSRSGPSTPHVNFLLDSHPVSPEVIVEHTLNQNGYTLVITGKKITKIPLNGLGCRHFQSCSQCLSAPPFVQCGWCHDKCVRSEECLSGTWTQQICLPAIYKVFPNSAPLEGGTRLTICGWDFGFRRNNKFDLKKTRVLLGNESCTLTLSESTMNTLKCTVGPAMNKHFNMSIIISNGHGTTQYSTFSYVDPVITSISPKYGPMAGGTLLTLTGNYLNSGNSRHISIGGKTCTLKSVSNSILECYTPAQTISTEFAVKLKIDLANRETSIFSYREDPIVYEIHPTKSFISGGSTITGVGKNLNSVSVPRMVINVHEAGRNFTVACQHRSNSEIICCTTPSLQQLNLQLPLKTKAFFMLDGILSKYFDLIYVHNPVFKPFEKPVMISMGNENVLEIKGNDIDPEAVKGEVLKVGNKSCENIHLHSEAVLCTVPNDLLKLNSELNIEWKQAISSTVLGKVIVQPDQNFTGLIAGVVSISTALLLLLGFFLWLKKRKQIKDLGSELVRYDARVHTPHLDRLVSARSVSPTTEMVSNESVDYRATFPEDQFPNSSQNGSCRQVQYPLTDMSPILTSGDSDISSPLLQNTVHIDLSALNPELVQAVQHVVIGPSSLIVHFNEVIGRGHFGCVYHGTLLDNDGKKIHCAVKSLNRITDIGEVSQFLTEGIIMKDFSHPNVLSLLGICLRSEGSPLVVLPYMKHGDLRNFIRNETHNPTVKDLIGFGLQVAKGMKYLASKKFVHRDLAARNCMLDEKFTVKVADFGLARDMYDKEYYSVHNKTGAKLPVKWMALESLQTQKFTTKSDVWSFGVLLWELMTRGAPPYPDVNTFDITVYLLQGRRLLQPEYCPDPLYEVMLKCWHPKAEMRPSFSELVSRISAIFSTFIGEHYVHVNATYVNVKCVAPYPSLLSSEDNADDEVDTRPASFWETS
Sequence of Human MET (residues 956-1390) (P08581 956-1390): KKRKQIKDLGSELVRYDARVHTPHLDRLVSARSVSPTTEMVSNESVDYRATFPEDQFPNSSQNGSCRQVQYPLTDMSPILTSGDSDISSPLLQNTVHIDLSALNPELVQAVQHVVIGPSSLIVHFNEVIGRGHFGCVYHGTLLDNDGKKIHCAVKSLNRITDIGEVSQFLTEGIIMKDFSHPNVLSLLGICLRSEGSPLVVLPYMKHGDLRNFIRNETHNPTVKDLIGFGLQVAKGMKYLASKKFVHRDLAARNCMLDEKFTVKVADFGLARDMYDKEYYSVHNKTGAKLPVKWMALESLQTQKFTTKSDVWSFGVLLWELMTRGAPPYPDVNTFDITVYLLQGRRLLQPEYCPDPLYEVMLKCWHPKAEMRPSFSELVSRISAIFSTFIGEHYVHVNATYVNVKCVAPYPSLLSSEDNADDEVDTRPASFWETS
Sequence of KDR (phospho-KDR, VEGF165-stimulated HUVEC cells) (P35968 20-1356): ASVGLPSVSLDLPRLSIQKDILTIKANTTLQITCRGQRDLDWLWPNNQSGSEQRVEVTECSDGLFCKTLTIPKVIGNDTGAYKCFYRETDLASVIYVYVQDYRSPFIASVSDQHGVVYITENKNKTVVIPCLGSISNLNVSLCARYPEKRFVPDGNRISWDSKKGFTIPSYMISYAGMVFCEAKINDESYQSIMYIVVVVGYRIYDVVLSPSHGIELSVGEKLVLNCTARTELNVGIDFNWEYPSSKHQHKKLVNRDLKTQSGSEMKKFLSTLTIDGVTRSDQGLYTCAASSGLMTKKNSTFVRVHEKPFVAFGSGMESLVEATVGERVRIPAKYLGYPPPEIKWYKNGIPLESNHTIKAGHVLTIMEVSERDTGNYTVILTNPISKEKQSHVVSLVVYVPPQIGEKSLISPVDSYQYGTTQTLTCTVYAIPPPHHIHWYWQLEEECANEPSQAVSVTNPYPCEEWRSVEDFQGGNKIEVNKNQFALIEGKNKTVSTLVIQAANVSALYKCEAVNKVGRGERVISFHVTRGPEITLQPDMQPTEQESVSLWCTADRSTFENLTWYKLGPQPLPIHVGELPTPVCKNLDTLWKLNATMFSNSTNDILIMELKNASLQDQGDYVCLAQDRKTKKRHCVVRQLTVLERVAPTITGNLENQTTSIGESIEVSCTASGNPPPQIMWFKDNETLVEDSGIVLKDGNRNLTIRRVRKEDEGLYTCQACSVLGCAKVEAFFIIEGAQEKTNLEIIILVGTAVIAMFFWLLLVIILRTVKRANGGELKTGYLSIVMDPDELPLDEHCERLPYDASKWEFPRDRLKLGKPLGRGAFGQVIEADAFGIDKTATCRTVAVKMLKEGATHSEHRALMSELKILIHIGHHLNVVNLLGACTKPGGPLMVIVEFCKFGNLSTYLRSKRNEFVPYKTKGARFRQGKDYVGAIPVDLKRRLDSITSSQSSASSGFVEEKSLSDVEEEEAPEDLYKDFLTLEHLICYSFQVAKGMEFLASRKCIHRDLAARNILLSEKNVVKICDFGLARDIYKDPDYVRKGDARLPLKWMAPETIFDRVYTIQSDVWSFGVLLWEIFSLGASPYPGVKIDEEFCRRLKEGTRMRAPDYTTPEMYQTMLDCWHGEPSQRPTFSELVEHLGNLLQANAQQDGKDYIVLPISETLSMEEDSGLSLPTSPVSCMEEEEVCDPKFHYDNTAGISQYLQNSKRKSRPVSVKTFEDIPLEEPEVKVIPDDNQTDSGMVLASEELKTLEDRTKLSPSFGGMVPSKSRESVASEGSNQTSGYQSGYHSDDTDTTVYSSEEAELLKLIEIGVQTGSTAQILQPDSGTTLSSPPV

Structure (SMILES) | IC50 [1] [nM] | IC50 [2] [nM] | IC50 [3] [nM]
COc1cc2nccc(Oc3ccc(NC(=O)c4cn(C5(C(F)(F)F)CC5)cc(-c5ccc(F)cc5)c4=O)cc3F)c2nc1OC [Compound 59, N-[4-[(6,7-Dimethoxy-1,5-naphthyridin-4-yl)oxy]-3-fluorophenyl]-5-(4-fluorophenyl)-4-oxo-1-[1-(trifluoromethyl)cyclopropyl]pyridine-3-carboxamide] | > 300 | < 100 | < 100
COc1cc2nccc(Oc3ccc(NC(=O)c4n[nH]c(C)c(-c5ccc(F)cc5)c4=O)cc3F)c2nc1OC [Compound 88, N-[4-[(6,7-Dimethoxy-1,5-naphthyridin-4-yl)oxy]-3-fluorophenyl]-5-(4-fluorophenyl)-6-methyl-4-oxo-1H-pyridazine-3-carboxamide] | < 100 | < 100 | < 100
COc1cc2nccc(Oc3ccc(NC(=O)c4cc(C(C)=O)c(C)n(-c5ccc(F)cc5)c4=O)cc3F)c2nc1OC [Compound 86, 5-Acetyl-N-[4-[(6,7-dimethoxy-1,5-naphthyridin-4-yl)oxy]-3-fluorophenyl]-1-(4-fluorophenyl)-6-methyl-2-oxopyridine-3-carboxamide] | 100 to 300 | < 100 | < 100
COc1cc2nccc(Oc3ccc(NC(=O)c4cn(-c5cn[nH]c5)cc(-c5ccc(F)cc5)c4=O)cc3F)c2nc1OC [Compound 62, N-[4-[(6,7-Dimethoxy-1,5-naphthyridin-4-yl)oxy]-3-fluorophenyl]-5-(4-fluorophenyl)-4-oxo-1-(1H-pyrazol-4-yl)pyridine-3-carboxamide] | > 300 | < 100 | < 100
COc1ccc2nccc(Oc3ccc(NC(=O)c4c(C)nc(C)c(-c5ccc(F)cc5)c4O)cc3F)c2n1 [Compound 67, N-[3-Fluoro-4-[(6-methoxy-1,5-naphthyridin-4-yl)oxy]phenyl]-5-(4-fluorophenyl)-4-hydroxy-2,6-dimethylpyridine-3-carboxamide] | < 100 | < 100 | < 100
COc1cc2nccc(Oc3ccc(NC(=O)c4cn(CC(F)(F)F)c(C)c(-c5ccc(F)cc5)c4=O)cc3F)c2nc1OC [Compound 74, N-[4-[(6,7-Dimethoxy-1,5-naphthyridin-4-yl)oxy]-3-fluorophenyl]-5-(4-fluorophenyl)-6-methyl-4-oxo-1-(2,2,2-trifluoroethyl)pyridine-3-carboxamide] | 100 to 300 | < 100 | < 100
COc1cc2nccc(Oc3ccc(NC(=O)c4cn(-c5cc[nH]n5)cc(-c5ccc(F)cc5)c4=O)cc3F)c2nc1OC [Compound 61, N-[4-[(6,7-Dimethoxy-1,5-naphthyridin-4-yl)oxy]-3-fluorophenyl]-5-(4-fluorophenyl)-4-oxo-1-(1H-pyrazol-3-yl)pyridine-3-carboxamide] | > 300 | < 100 | < 100
COc1cc2nccc(Oc3ccc(NC(=O)c4nc(C)c(C)n(-c5ccc(F)cc5)c4=O)cc3F)c2nc1OC [Compound 95, N-[4-[(6,7-Dimethoxy-1,5-naphthyridin-4-yl)oxy]-3-fluorophenyl]-4-(4-fluorophenyl)-5,6-dimethyl-3-oxopyrazine-2-carboxamide] | > 300 | < 100 | < 100
COc1ccc2nccc(Oc3ccc(NC(=O)c4n[nH]c(C)c(-c5ccc(F)cc5)c4=O)cc3F)c2n1 [Compound 89, N-[3-Fluoro-4-[(6-methoxy-1,5-naphthyridin-4-yl)oxy]phenyl]-5-(4-fluorophenyl)-6-methyl-4-oxo-1H-pyridazine-3-carboxamide] | < 100 | < 100 | < 100
COc1cc2nccc(Oc3ccc(NC(=O)c4cn(C)c(CO)c(-c5ccc(F)cc5)c4=O)cc3F)c2nc1OC [Compound 72, N-[4-[(6,7-Dimethoxy-1,5-naphthyridin-4-yl)oxy]-3-fluorophenyl]-5-(4-fluorophenyl)-6-(hydroxymethyl)-1-methyl-4-oxopyridine-3-carboxamide] | 100 to 300 | < 100 | < 100
COc1cc2nccc(Oc3ccc(NC(=O)c4cn(C)c(OC)c(-c5ccc(F)cc5)c4=O)cc3F)c2nc1OC [Compound 78, N-[4-[(6,7-Dimethoxy-1,5-naphthyridin-4-yl)oxy]-3-fluorophenyl]-5-(4-fluorophenyl)-6-methoxy-1-methyl-4-oxopyridine-3-carboxamide] | 100 to 300 | < 100 | < 100

Now from value to compound:

IC50 [1] [nM] | IC50 [2] [nM] | IC50 [3] [nM] | Structure (SMILES)
< 100 | < 100 | < 100 | COc1cc2nccc(Oc3ccc(NC(=O)c4cnc(C)c(-c5ccc(F)cc5)c4O)cc3F)c2nc1OC(C)C [Compound 415, N-[3-fluoro-4-[(7-methoxy-6-propan-2-yloxy-1,5-naphthyridin-4-yl)oxy]phenyl]-5-(4-fluorophenyl)-4-hydroxy-6-methylpyridine-3-carboxamide]
> 300 | < 100 | < 100 | COc1cc2nccc(Oc3ccc(NC(=O)c4cn(C5CC5)c(C)c(-c5ccc(F)cc5)c4=O)cc3F)c2nc1OC [Compound 433, 1-cyclopropyl-N-[4-[(6,7-dimethoxy-1,5-naphthyridin-4-yl)oxy]-3-fluorophenyl]-5-(4-fluorophenyl)-6-methyl-4-oxopyridine-3-carboxamide]
> 300 | < 100 | < 100 | COc1cc2nccc(Oc3ccc(NC(=O)c4cn(C5CC5)c(C)c(-c5ccc(F)cc5)c4=O)cc3)c2nc1OC [Compound 434, 1-cyclopropyl-N-[4-[(6,7-dimethoxy-1,5-naphthyridin-4-yl)oxy]phenyl]-5-(4-fluorophenyl)-6-methyl-4-oxopyridine-3-carboxamide]
< 100 | < 100 | < 100 | Cc1cc2nccc(Oc3ccc(NC(=O)c4cnc(C)c(-c5ccc(F)cc5)c4O)cc3F)c2nc1F [Compound 426, N-[3-fluoro-4-[(6-fluoro-7-methyl-1,5-naphthyridin-4-yl)oxy]phenyl]-5-(4-fluorophenyl)-4-hydroxy-6-methylpyridine-3-carboxamide]
< 100 | < 100 | < 100 | CCc1cnc2c(Oc3ccc(NC(=O)c4cnc(C)c(-c5ccc(F)cc5C)c4O)cc3F)ccnc2c1 [Compound 419, N-[4-[(7-ethyl-1,5-naphthyridin-4-yl)oxy]-3-fluorophenyl]-5-(4-fluoro-2-methylphenyl)-4-hydroxy-6-methylpyridine-3-carboxamide]
< 100 | < 100 | < 100 | COc1cc2nccc(Oc3ccc(NC(=O)c4c(C)nc(OC)c(-c5ccc(F)cc5)c4O)cc3F)c2nc1OC [Compound 442, N-[4-[(6,7-dimethoxy-1,5-naphthyridin-4-yl)oxy]-3-fluorophenyl]-5-(4-fluorophenyl)-4-hydroxy-6-methoxy-2-methylpyridine-3-carboxamide]
> 300 | < 100 | < 100 | COc1cc2nccc(Oc3ncc(NC(=O)c4cn(-c5ccn(C)n5)cc(-c5ccc(F)cc5)c4=O)cc3F)c2cc1OC [Compound 402, N-[6-(6,7-dimethoxyquinolin-4-yl)oxy-5-fluoropyridin-3-yl]-5-(4-fluorophenyl)-1-(1-methylpyrazol-3-yl)-4-oxopyridine-3-carboxamide]
< 100 | < 100 | < 100 | C=Cc1cc2nccc(Oc3ccc(NC(=O)c4cnc(C)c(-c5ccc(F)cc5)c4O)cc3F)c2nc1OC [Compound 422, N-[4-[(7-ethenyl-6-methoxy-1,5-naphthyridin-4-yl)oxy]-3-fluorophenyl]-5-(4-fluorophenyl)-4-hydroxy-6-methylpyridine-3-carboxamide]
> 300 | 100 to 300 | < 100 | COc1ccc2nccc(Oc3ccc(NC(=O)c4cn(C5CC5)c(C)c(-c5ccc(F)cc5C)c4=O)cc3F)c2n1 [Compound 441, 1-cyclopropyl-N-[3-fluoro-4-[(6-methoxy-1,5-naphthyridin-4-yl)oxy]phenyl]-5-(4-fluoro-2-methylphenyl)-6-methyl-4-oxopyridine-3-carboxamide]
< 100 | < 100 | < 100 | COc1cc2nccc(Oc3ccc(NC(=O)c4cnc(C)c(-c5ccc(F)cc5C)c4O)cc3)c2nc1OC(C)C [Compound 414, 5-(4-fluoro-2-methylphenyl)-4-hydroxy-N-[4-[(7-methoxy-6-propan-2-yloxy-1,5-naphthyridin-4-yl)oxy]phenyl]-6-methylpyridine-3-carboxamide]
> 300 | < 100 | < 100 | Cc1cc(F)ccc1-c1c(C)nnc(C(=O)Nc2ccc(Oc3ccnc4cc(C)c(F)nc34)c(F)c2)c1O [Compound 430, N-[3-fluoro-4-[(6-fluoro-7-methyl-1,5-naphthyridin-4-yl)oxy]phenyl]-5-(4-fluoro-2-methylphenyl)-4-hydroxy-6-methylpyridazine-3-carboxamide]
